Data published in article PMC7531004, “Discovery of gramicidin A analogues with altered activities by multidimensional screening of a one-bead-one-compound library” (Nature Communications, 2020).
Where a SMILES comes first, the peptide text is derived from it. [ ]: non-standard residue; d: D form. The star is where a group is joined. NHCH2CH2OH = OCCN*; For = O=C*

Legend:
[1] = H+/Na+ transport assay of bead-derived peptides (one-point); assay type: biochemical; parameters: key: relative activity; mean of two control wells = 1.00; details: bead-derived peptide solution, EYPC/EYPG LUVs;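 note: relative to parent gramicidin A activity set to 1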
Summary of the method: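 One-point screen: peptide + pyranine-loaded LUVs, 30 min RT with vortexing, 96-well. Read-out is fluorescence intensity scaled as 100 × (Ix – I0)/(Imax – I0). Imax from Triton X-100, I0 from untreated vesicles, and the mean of the two control wells is set to 1.00.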

[2] = system: Streptococcus pyogenes SSI-9; test: Antibacterial activity assay of bead-derived peptides (three concentrations); assay type: cell-based; parameters: key: +++: inhibition by the 640-fold diluted peptide solution; ++: inhibition by the 160-fold diluted solution; +: inhibition by the 40-fold diluted solution; -: no inhibition; details: S. pyogenes, bead-derived peptide solution, three concentrations
Summary of the method: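 Three stock dilutions per peptide (none, 4-fold, 16-fold in DMSO) are screened in 96-well format. The medium is blood-supplemented cation-adjusted MHB, inoculated with 2 × 10^5 CFU S. pyogenes SSI-9. Growth is read as cell precipitation at 18 h, 37 °C.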

[3] = cell viability/%
Summary of the method: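 First, library peptide stocks are diluted 250-fold in RPMI1640 with 10% heat-inactivated FBS. Next, they are mixed with P388 cells to give 1 × 10^4 cells/mL and incubated 92 h at 37 °C, 5% CO2. Finally, viability (%) is scored by WST-1 absorbance at 415 nm.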

| Structure (SMILES) | H+/Na+ transport activity normalized against the value of 1 (1.00) [1] | antibacterial activity [2] | viability [3] |
| --- | --- | --- | --- |
| CC(C)C[C@@H](NC(=O)[C@H](Cc1c[nH]c2ccccc12)NC(=O)[C@H](NC(=O)[C@@H](NC(=O)[C@H](NC(=O)[C@H](C)NC(=O)[C@H](NC(=O)[C@H](C)NC(=O)CNC(=O)[C@@H](NC=O)C(C)C)C(C)C)C(C)C)C(C)C)C(C)C)C(=O)N[C@@H](Cc1c[nH]c2ccccc12)C(=O)N[C@H](CC(C)C)C(=O)N[C@@H](Cc1c[nH]c2ccccc12)C(=O)N[C@@H](C(=O)N[C@@H](Cc1c[nH]c2ccccc12)C(=O)NCCO)C(C)C [compound 5742] (For-VGA[dV]A[dV]V[dV]W[dL]W[dL]W[dV]W-NHCH2CH2OH) | 1.16 | ++ | 11.1% |
| CC(C)C[C@@H](NC(=O)[C@H](Cc1c[nH]c2ccccc12)NC(=O)[C@H](NC(=O)[C@H](Cc1c[nH]c2ccccc12)NC(=O)[C@@H](CC(C)C)NC(=O)[C@H](Cc1c[nH]c2ccccc12)NC(=O)[C@@H](CC(C)C)NC(=O)[C@@H](NC(=O)[C@H](NC(=O)[C@H](C)NC(=O)[C@H](NC(=O)[C@H](C)NC(=O)CNC(=O)[C@@H](NC=O)C(C)C)[C@H](C)O)C(C)C)C(C)C)C(C)C)C(=O)N[C@@H](Cc1c[nH]c2ccccc12)C(=O)NCCO [compound 1509] (For-VGA[dT]A[dV]V[dL]W[dL]W[dV]W[dL]W-NHCH2CH2OH) | 1.10 | - | 100% |
| CC(C)C[C@@H](NC(=O)[C@H](Cc1c[nH]c2ccccc12)NC(=O)[C@@H](CC(C)C)NC(=O)[C@@H](NC(=O)[C@H](NC(=O)[C@H](C)NC(=O)[C@H](NC(=O)[C@H](C)NC(=O)CNC(=O)[C@@H](NC=O)C(C)C)C(C)C)C(C)C)C(C)C)C(=O)N[C@@H](Cc1c[nH]c2ccccc12)C(=O)N[C@H](CC(C)C)C(=O)N[C@@H](Cc1c[nH]c2ccccc12)C(=O)N[C@@H](C(=O)N[C@@H](Cc1c[nH]c2ccccc12)C(=O)NCCO)C(C)C [compound 511] (For-VGA[dV]A[dV]V[dL]W[dL]W[dL]W[dV]W-NHCH2CH2OH) | 1.01 | ++ | 1.8% |
| CC(C)C[C@@H](NC(=O)[C@H](C)NC(=O)CNC(=O)[C@@H](NC=O)C(C)C)C(=O)N[C@@H](C)C(=O)N[C@H](CC(C)C)C(=O)N[C@H](C(=O)N[C@@H](C(=O)N[C@@H](Cc1c[nH]c2ccccc12)C(=O)N[C@H](CC(C)C)C(=O)N[C@@H](Cc1c[nH]c2ccccc12)C(=O)N[C@@H](C(=O)N[C@@H](Cc1c[nH]c2ccccc12)C(=O)N[C@H](CC(C)C)C(=O)N[C@@H](Cc1c[nH]c2ccccc12)C(=O)NCCO)C(C)C)[C@H](C)O)C(C)C [compound 8604] (For-VGA[dL]A[dL]V[dT]W[dL]W[dV]W[dL]W-NHCH2CH2OH) | 1.08 | - | 54.4% |
| CC(C)C[C@@H](NC(=O)[C@H](Cc1c[nH]c2ccccc12)NC(=O)[C@H](NC(=O)[C@H](Cc1c[nH]c2ccccc12)NC(=O)[C@H](NC(=O)[C@H](Cc1c[nH]c2ccccc12)NC(=O)[C@@H](CC(C)C)NC(=O)[C@@H](NC(=O)[C@H](NC(=O)[C@H](C)NC(=O)[C@H](NC(=O)[C@H](C)NC(=O)CNC(=O)[C@@H](NC=O)C(C)C)C(C)C)[C@H](C)O)C(C)C)C(C)C)C(C)C)C(=O)N[C@@H](Cc1c[nH]c2ccccc12)C(=O)NCCO [compound 7320] (For-VGA[dV]A[dT]V[dL]W[dV]W[dV]W[dL]W-NHCH2CH2OH) | 1.04 | - | 58.5% |
| CC(C)C[C@@H](NC(=O)[C@H](C)NC(=O)[C@H](NC(=O)[C@H](C)NC(=O)CNC(=O)[C@@H](NC=O)C(C)C)[C@H](C)O)C(=O)N[C@H](C(=O)N[C@H](CC(C)C)C(=O)N[C@@H](Cc1c[nH]c2ccccc12)C(=O)N[C@@H](C(=O)N[C@@H](Cc1c[nH]c2ccccc12)C(=O)N[C@@H](C(=O)N[C@@H](Cc1c[nH]c2ccccc12)C(=O)N[C@@H](C(=O)N[C@@H](Cc1c[nH]c2ccccc12)C(=O)NCCO)C(C)C)C(C)C)[C@H](C)O)C(C)C [compound 2139] (For-VGA[dT]A[dL]V[dL]W[dT]W[dV]W[dV]W-NHCH2CH2OH) | 1.05 | - | 100% |
| CC(C)C[C@@H](NC(=O)[C@H](C)NC(=O)CNC(=O)[C@@H](NC=O)C(C)C)C(=O)N[C@@H](C)C(=O)N[C@@H](C(=O)N[C@H](C(=O)N[C@H](CC(C)C)C(=O)N[C@@H](Cc1c[nH]c2ccccc12)C(=O)N[C@H](CC(C)C)C(=O)N[C@@H](Cc1c[nH]c2ccccc12)C(=O)N[C@@H](C(=O)N[C@@H](Cc1c[nH]c2ccccc12)C(=O)N[C@@H](C(=O)N[C@@H](Cc1c[nH]c2ccccc12)C(=O)NCCO)[C@H](C)O)[C@H](C)O)C(C)C)C(C)C [compound 4328] (For-VGA[dL]A[dV]V[dL]W[dL]W[dT]W[dT]W-NHCH2CH2OH) | 1.13 | + | 100% |
| CC(C)C[C@@H](NC(=O)[C@H](Cc1c[nH]c2ccccc12)NC(=O)[C@H](NC(=O)[C@@H](NC(=O)[C@H](NC(=O)[C@H](C)NC(=O)[C@H](NC(=O)[C@H](C)NC(=O)CNC(=O)[C@@H](NC=O)C(C)C)[C@H](C)O)C(C)C)C(C)C)C(C)C)C(=O)N[C@@H](Cc1c[nH]c2ccccc12)C(=O)N[C@H](CC(C)C)C(=O)N[C@@H](Cc1c[nH]c2ccccc12)C(=O)N[C@@H](C(=O)N[C@@H](Cc1c[nH]c2ccccc12)C(=O)NCCO)C(C)C [compound 4452] (For-VGA[dT]A[dV]V[dV]W[dL]W[dL]W[dV]W-NHCH2CH2OH) | 1.30 | - | 100% |
| CC(C)C[C@@H](NC(=O)[C@H](C)NC(=O)CNC(=O)[C@@H](NC=O)C(C)C)C(=O)N[C@@H](C)C(=O)N[C@H](CC(C)C)C(=O)N[C@H](C(=O)N[C@@H](C(=O)N[C@@H](Cc1c[nH]c2ccccc12)C(=O)N[C@H](CC(C)C)C(=O)N[C@@H](Cc1c[nH]c2ccccc12)C(=O)N[C@@H](C(=O)N[C@@H](Cc1c[nH]c2ccccc12)C(=O)N[C@H](CC(C)C)C(=O)N[C@@H](Cc1c[nH]c2ccccc12)C(=O)NCCO)C(C)C)C(C)C)C(C)C [compound 11305] (For-VGA[dL]A[dL]V[dV]W[dL]W[dV]W[dL]W-NHCH2CH2OH) | 1.26 | + | 15.5% |
| CNC(=O)C[C@@H](NC(=O)[C@H](Cc1c[nH]c2ccccc12)NC(=O)[C@H](NC(=O)[C@H](Cc1c[nH]c2ccccc12)NC(=O)[C@@H](CC(C)C)NC(=O)[C@@H](NC(=O)[C@H](NC(=O)[C@H](C)NC(=O)[C@H](NC(=O)[C@H](C)NC(=O)CNC(=O)[C@@H](NC=O)C(C)C)C(C)C)C(C)C)C(C)C)C(C)C)C(=O)N[C@@H](Cc1c[nH]c2ccccc12)C(=O)N[C@@H](C(=O)N[C@@H](Cc1c[nH]c2ccccc12)C(=O)NCCO)C(C)C [compound 3369] (For-VGA[dV]A[dV]V[dL]W[dV]W[dD](NHMe)W[dV]W-NHCH2CH2OH) | 1.00 | - | 100% |
| CNC(=O)C[C@@H](NC(=O)[C@H](Cc1c[nH]c2ccccc12)NC(=O)[C@@H](CC(C)C)NC(=O)[C@H](Cc1c[nH]c2ccccc12)NC(=O)[C@H](NC(=O)[C@H](Cc1c[nH]c2ccccc12)NC(=O)[C@H](NC(=O)[C@@H](NC(=O)[C@H](NC(=O)[C@H](C)NC(=O)[C@@H](CC(C)C)NC(=O)[C@H](C)NC(=O)CNC(=O)[C@@H](NC=O)C(C)C)C(C)C)C(C)C)C(C)C)C(C)C)C(=O)N[C@@H](Cc1c[nH]c2ccccc12)C(=O)NCCO [compound 4898] (For-VGA[dL]A[dV]V[dV]W[dV]W[dL]W[dD](NHMe)W-NHCH2CH2OH) | 1.21 | - | 100% |
| CC(C)C[C@@H](NC(=O)[C@H](Cc1c[nH]c2ccccc12)NC(=O)[C@@H](CC(C)C)NC(=O)[C@@H](NC(=O)[C@H](NC(=O)[C@H](C)NC(=O)[C@H](NC(=O)[C@H](C)NC(=O)CNC(=O)[C@@H](NC=O)C(C)C)C(C)C)C(C)C)C(C)C)C(=O)N[C@@H](Cc1c[nH]c2ccccc12)C(=O)N[C@@H](C(=O)N[C@@H](Cc1c[nH]c2ccccc12)C(=O)N[C@@H](C(=O)N[C@@H](Cc1c[nH]c2ccccc12)C(=O)NCCO)C(C)C)C(C)C [compound 100] (For-VGA[dV]A[dV]V[dL]W[dL]W[dV]W[dV]W-NHCH2CH2OH) | 1.18 | ++ | 9.5% |
| CC(C)C[C@@H](NC(=O)[C@H](C)NC(=O)[C@H](NC(=O)[C@H](C)NC(=O)CNC(=O)[C@@H](NC=O)C(C)C)C(C)C)C(=O)N[C@H](C(=O)N[C@@H](C(=O)N[C@@H](Cc1c[nH]c2ccccc12)C(=O)N[C@H](CC(C)C)C(=O)N[C@@H](Cc1c[nH]c2ccccc12)C(=O)N[C@@H](C(=O)N[C@@H](Cc1c[nH]c2ccccc12)C(=O)N[C@@H](C(=O)N[C@@H](Cc1c[nH]c2ccccc12)C(=O)NCCO)[C@H](C)O)C(C)C)[C@H](C)O)C(C)C [compound 3328] (For-VGA[dV]A[dL]V[dT]W[dL]W[dV]W[dT]W-NHCH2CH2OH) | 1.08 | - | 100% |
